Data as given in patent EP1247448A2 (priority 1998, dated 1999).
“And” between values parts separate entries of the source, which are not always exact repeats. Equal values may be shown once. Read-outs that look alike come from different tables or passages of the source.

How the values were obtained:
[1] = tested on: Cucumber Downy Mildew; assay: Cucumber downy mildew control on cucumber plants (Example 4); format: in vivo, Pseudoperonospora cubensis; details: Table 4b
[2] = tested on: Tomato Late Blight; format: in vivo, Phytophthora infestans; details: Table 4a
[3] = tested on: Phytophthora capsici; assay: Phytophthora capsici colony growth inhibition on potato dextrose agar (Examples 1 and 2); format: cell-based, Phytophthora capsici (ATCC 15399)
[4] = tested on: Cucumber Downy Mildew; design: species or system Pseudoperonospora cubensis; details: in vivo
[5] = tested on: Phytophthora infestans on potatoes (PLB); format: in vivo; details: Table 5b
[6] = tested on: tomato late blight (TLB), Phytophthora infestans; format: in vivo; details: for TLB obs. % Control: Table 3a
[7] = tested on: grape downy mildew, Plasmopara viticola; assay: Grape downy mildew control on Delaware grapes (Example 6b); format: in vivo; details: Table 6b
Procedure: Tissue culture produced from Delaware grapes were sprayed with the fungicides. Inoculation with grape downy mildew (GDM) spores having a concentration of 40,000 spores ml was conducted 1 day after the application. Plants were placed in a mist chamber for 24 hrs and then moved to a control temperature chamber for the remainder of the test period. Table 6b -

[8] = tested on: Tomato Late Blight; format: in vivo, Phytophthora infestans; details: Table 6a

For `CCCOC(=O)NCCCN(C)C` [Cmpd. F, Propamocarb, reference compound], the “% Control Observed” value ([1]; 0.063 Kg ai/ha) was 9%, the “% Control Observed” value ([1]; 0.125 Kg ai/ha) was 0% and the “% Control Observed” value ([1]; 0.25 Kg ai/ha) was 27%. The “% Control Observed” value ([2]; 0.063 Kg ai/ha) was 0%, the “% Control Observed” value ([2]; 0.125 Kg ai/ha) was 3% and the “% Control Observed” value ([2]; 0.25 Kg ai/ha) was 17%.
For `OP(O)O` [Compound C, Phosphorous Acid, reference compound], the “% Inhibition (Observed)” value ([3]; Table 1, Compound C 70 ppm, Compound A 0 ppm) was 48.3% and the “% Inhibition (Observed)” value ([3]; Table 1, Compound C 100 ppm, Compound A 0 ppm) was 72.1%.
In the case of `O.O.O.O.O.O=S(=O)([O-])[O-].[Cu+2]` [Compound D, CuSO4·5H2O, reference compound], the “% Inhibition (Observed)” value ([3]; Table 2, Compound D 100 ppm, Compound A 0 ppm) was 15.6%, the “% Inhibition (Observed)” value ([3]; Table 2, Compound D 200 ppm, Compound A 0 ppm) was 47.0% and the “% Inhibition (Observed)” value ([3]; Table 2, Compound D 300 ppm, Compound A 0 ppm) was 59.2%.
For `O=C1c2ccccc2C(=O)N1SC(Cl)(Cl)Cl` [Cmpd. G, Folpet, reference compound], the “Number of Infection Sites” value [4] was 16 and 22.2 and 19.2, the “% Control Observed” value ([5]; 0.225 Kg ai/ha) was 0% and the “% Control Observed” value ([5]; 0.45 Kg ai/ha) was 3.5%.
For `CCO[PH](=O)O` [Cmpd. E, Fosetyl-aluminum, reference compound], the “TLB obs. % Control” value ([6]; 0.112 kg ai/ha) was 30.9%, the “TLB obs. % Control” value ([6]; 0.225 kg ai/ha) was 14.3% and the “TLB obs. % Control” value ([6]; 0.45 kg ai/ha) was 57.1%. The “TLB obs. % Control” value ([6]; 0.9 kg ai/ha) was 54.8%.
With `O=[N+]([O-])c1cc(C(F)(F)F)c(Cl)c([N+](=O)[O-])c1Nc1ncc(C(F)(F)F)cc1Cl` [Cmpd. H, Fluazinam, reference compound] the “% Control Observed” value ([7]; Cmpd. H 0.006 Kg ai/ha) was 52%, the “% Control Observed” value ([8]; 0.125 Kg ai/ha) was 20% and the “% Infection” value ([8]; 0.125 Kg ai/ha) was 64%.
For `CCC(C)(NC(=O)c1cc(Cl)c(C)c(Cl)c1)C(=O)CCl` (stereo not shown) [Compound A, N-[3'-(1'-chloro-3'-methyl-2'-oxopentan)]-3,5-dichloro-4-methylbenzamide], the “% Control Observed” value [4] was 74.3% and 84.8% and 98.1%, the “control of tomato late blight” value ([6]; Example 3a, alone at all rates tested) was no less than 95% and the “TLB obs. % Control” value ([6]; 0.0125 kg ai/ha) was 97.1%. The “TLB obs. % Control” value ([6]; 0.025 kg ai/ha) was 96.7%, the “TLB obs. % Control” value ([6]; 0.05 kg ai/ha) was 96.7% and the “TLB obs. % Control” value ([6]; 0.1 kg ai/ha) was 97.1%. The “% Control Observed” value ([1]; 0.006 Kg ai/ha) was 56%, the “% Control Observed” value ([1]; 0.012 Kg ai/ha) was 33% and the “% Control Observed” value ([1]; 0.025 Kg ai/ha) was 45%. The “% Control Observed” value ([7]; Cmpd. A 0.006 Kg ai/ha) was 22%, the “% Control Observed” value ([2]; 0.006 Kg ai/ha) was 23% and the “% Control Observed” value ([2]; 0.012 Kg ai/ha) was 20%. For the same molecule, the “% Control Observed” value ([2]; 0.025 Kg ai/ha) was 36%, the “% Control Observed” value ([5]; 0.05 Kg ai/ha) was 12% and the “% Control Observed” value ([5]; 0.10 Kg ai/ha) was 16%. For the same molecule, the “% Control Observed” value ([8]; 0.025 Kg ai/ha) was 84%, the “% Infection” value ([8]; 0.025 Kg ai/ha) was 13.2% and the “% Inhibition (Observed)” value ([3]; Table 1, Compound A 0.2 ppm, Compound C 0 ppm) was 34.1%. For the same molecule, the “% Inhibition (Observed)” value ([3]; Table 1, Compound A 0.3 ppm, Compound C 0 ppm) was 52.8%, the “% Inhibition (Observed)” value ([3]; Table 2, Compound A 0.1 ppm, Compound D 0 ppm) was 21.6% and the “% Inhibition (Observed)” value ([3]; Table 2, Compound A 0.2 ppm, Compound D 0 ppm) was 31.0%. For the same molecule, the “% Inhibition (Observed)” value ([3]; Table 2, Compound A 0.3 ppm, Compound D 0 ppm) was 44.0%.
